Assay results published in ChEMBL document CHEMBL1138461, “4-Phenyl-7-azaindoles as potent and selective IKK2 inhibitors” (Bioorg Med Chem Lett, 2009).

Experiments:
[1] = molecular target: T1, Inhibitor of nuclear factor kappa-B kinase subunit alpha (Homo sapiens, UniProt O15111); assay: Inhibition of human recombinant IKK1
T1 sequence (O15111 whole entry): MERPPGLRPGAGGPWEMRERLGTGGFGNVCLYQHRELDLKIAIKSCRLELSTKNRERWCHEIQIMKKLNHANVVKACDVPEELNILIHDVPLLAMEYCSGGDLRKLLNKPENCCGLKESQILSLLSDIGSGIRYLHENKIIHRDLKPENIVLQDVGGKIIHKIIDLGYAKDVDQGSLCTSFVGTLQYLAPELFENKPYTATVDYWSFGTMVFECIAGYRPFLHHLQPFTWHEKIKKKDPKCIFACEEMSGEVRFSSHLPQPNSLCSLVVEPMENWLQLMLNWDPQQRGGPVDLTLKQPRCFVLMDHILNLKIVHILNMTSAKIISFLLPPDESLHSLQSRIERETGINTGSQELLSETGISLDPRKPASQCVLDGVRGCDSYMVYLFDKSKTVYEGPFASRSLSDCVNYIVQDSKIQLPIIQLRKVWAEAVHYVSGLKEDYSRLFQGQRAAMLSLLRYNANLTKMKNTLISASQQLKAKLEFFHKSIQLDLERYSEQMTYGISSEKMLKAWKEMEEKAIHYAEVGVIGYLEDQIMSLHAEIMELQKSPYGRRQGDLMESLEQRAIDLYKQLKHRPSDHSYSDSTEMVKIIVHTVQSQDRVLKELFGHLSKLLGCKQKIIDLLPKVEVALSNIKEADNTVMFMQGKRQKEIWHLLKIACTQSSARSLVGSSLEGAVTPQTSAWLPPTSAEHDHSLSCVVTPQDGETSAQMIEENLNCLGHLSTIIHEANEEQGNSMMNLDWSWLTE

[2] = molecular target: T2, Inhibitor of nuclear factor kappa-B kinase subunit beta (Homo sapiens, UniProt O14920); assay: Inhibition of human recombinant IKK2
T2 sequence (O14920 whole entry): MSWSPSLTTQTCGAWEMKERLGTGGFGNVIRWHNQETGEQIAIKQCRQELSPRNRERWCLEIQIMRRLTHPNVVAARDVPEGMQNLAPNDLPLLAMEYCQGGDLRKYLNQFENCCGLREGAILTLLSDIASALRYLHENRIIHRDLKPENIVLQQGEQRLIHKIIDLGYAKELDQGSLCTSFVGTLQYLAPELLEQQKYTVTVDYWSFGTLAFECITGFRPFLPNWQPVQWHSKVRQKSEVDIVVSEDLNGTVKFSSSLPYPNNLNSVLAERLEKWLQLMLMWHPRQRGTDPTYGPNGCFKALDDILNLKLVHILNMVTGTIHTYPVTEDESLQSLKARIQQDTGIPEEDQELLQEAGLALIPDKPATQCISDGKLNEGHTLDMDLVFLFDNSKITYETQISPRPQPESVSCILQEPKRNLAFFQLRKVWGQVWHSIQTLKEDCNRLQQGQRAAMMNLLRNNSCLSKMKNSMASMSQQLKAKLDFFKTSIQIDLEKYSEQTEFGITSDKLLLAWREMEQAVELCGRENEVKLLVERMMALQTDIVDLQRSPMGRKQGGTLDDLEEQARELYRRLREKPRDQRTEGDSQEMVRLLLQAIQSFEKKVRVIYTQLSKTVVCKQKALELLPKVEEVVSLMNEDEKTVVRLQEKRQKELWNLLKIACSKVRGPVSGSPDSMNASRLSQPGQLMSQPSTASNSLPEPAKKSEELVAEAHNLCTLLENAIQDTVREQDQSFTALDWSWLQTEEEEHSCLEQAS

[3] = tested on: A549; assay: Inhibition of TNF-alpha-induced NF-kappaB […] activation in human A549 cells; format: functional, cell-based
[4] = molecular target: Rho-associated protein kinase 1 (Homo sapiens, UniProt Q13464); assay: Inhibition of human recombinant ROCK1
Rho-associated protein kinase 1, sequence (Q13464 whole entry): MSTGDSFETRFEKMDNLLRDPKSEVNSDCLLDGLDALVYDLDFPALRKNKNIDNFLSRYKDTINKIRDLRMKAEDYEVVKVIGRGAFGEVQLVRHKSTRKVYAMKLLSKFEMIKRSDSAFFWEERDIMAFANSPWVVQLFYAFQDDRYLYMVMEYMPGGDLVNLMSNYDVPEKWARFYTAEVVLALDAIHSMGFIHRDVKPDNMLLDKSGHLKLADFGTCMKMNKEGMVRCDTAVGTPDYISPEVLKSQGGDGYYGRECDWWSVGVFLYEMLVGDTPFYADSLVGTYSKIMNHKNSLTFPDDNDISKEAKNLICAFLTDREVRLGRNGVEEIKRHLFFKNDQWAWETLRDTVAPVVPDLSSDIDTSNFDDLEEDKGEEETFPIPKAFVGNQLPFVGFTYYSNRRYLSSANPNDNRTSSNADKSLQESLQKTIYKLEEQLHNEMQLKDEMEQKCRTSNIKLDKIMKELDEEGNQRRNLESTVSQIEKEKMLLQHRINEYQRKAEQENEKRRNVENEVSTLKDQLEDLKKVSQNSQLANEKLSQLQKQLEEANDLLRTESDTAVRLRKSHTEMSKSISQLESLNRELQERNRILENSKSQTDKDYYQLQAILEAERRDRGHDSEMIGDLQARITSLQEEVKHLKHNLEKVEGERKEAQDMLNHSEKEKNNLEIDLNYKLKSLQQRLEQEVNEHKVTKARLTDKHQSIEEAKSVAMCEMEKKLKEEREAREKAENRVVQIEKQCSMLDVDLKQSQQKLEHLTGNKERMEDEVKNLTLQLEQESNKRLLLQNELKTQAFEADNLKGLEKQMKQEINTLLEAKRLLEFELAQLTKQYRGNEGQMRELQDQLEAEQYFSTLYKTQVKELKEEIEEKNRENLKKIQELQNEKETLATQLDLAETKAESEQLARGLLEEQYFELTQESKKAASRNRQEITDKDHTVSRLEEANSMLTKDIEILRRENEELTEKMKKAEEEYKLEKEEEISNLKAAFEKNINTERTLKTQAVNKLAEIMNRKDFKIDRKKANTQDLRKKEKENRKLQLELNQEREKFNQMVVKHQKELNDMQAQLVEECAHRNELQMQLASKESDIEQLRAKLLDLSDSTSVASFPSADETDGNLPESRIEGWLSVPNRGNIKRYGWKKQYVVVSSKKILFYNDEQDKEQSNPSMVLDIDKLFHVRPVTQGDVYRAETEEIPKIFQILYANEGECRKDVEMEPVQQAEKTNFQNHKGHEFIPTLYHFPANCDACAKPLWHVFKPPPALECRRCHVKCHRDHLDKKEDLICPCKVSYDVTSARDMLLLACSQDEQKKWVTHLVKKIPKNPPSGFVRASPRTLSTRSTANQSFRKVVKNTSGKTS

[5] = molecular target: Glycogen synthase kinase-3 beta (Homo sapiens, UniProt P49841); assay: Inhibition of GSK3-beta kinase
Glycogen synthase kinase-3 beta, sequence (P49841 whole entry): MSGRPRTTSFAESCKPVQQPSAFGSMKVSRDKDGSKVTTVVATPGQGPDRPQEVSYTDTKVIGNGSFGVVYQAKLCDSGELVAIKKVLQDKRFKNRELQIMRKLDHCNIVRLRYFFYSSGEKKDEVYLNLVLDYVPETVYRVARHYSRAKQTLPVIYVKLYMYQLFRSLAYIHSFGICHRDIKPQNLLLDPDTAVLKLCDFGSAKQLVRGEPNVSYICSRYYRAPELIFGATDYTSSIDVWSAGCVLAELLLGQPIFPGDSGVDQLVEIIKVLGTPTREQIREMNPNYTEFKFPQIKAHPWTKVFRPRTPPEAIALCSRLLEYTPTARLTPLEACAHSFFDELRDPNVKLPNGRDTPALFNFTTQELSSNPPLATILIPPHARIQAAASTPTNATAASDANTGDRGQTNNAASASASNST

[6] = molecular target: Aurora kinase B (Homo sapiens, UniProt Q96GD4); assay: Inhibition of Aurora B kinase
Aurora kinase B, sequence (Q96GD4 whole entry): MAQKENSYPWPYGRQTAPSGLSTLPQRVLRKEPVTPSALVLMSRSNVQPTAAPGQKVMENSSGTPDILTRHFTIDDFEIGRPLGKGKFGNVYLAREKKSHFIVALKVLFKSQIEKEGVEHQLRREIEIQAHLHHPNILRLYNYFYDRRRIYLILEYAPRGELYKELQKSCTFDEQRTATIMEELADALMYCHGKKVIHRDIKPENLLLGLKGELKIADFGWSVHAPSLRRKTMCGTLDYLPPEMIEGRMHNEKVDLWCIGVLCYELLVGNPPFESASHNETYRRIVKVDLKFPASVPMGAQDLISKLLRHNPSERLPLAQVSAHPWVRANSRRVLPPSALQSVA

SMILES	IC50 [1]	IC50 [2]	IC50 [3]	IC50 [4]	IC50 [5]	IC50 [6]
NS(=O)(=O)c1cccc(-c2ccnc3[nH]ccc23)c1	1260 nM	5010 nM	–	–	–	–
Cc1cc2c(-c3ccc(N(C)S(C)(=O)=O)cc3)ccnc2[nH]1	7940 nM	316 nM	2000 nM	–	–	–
Cc1cc2c(-c3ccc(NS(=O)(=O)CCN)cc3)ccnc2[nH]1	126 nM	15.8 nM	2000 nM	–	–	–
NS(=O)(=O)c1ccc(-c2ccnc3[nH]ccc23)cc1	158 nM	316 nM	–	–	–	–
CNCCNS(=O)(=O)c1ccc(-c2ccnc3[nH]ccc23)cc1	316 nM	31.6 nM	–	–	–	–
NCCNS(=O)(=O)c1ccc(-c2ccnc3[nH]ccc23)cc1	251 nM	39.8 nM	631 nM	20 nM	–	–
CS(=O)(=O)Nc1ccc(-c2ccnc3[nH]ccc23)cc1	794 nM	158 nM	–	–	–	–
Cc1cc2c(-c3ccc(S(=O)(=O)NC4CCS(=O)(=O)CC4)cc3)ccnc2[nH]1	12.6 nM	20 nM	50.1 nM	–	–	–
NCCNS(=O)(=O)c1ccc(-c2ccnc3[nH]c(CC(N)=O)cc23)cc1	158 nM	20 nM	3980 nM	10000 nM	–	–
Cc1cc2c(-c3ccc(NS(C)(=O)=O)cc3)ccnc2[nH]1	3980 nM	63.1 nM	1000 nM	–	–	–
Cc1cc2c(-c3ccc(S(=O)(=O)N(C)CCO)cc3)ccnc2[nH]1	3160 nM	39.8 nM	–	> 10000 nM	> 25.1 µM	1580 nM
CN(C)CCNS(=O)(=O)c1ccc(-c2ccnc3[nH]ccc23)cc1	794 nM	200 nM	–	–	–	–
c1ccc(-c2ccnc3[nH]ccc23)cc1	3980 nM	3160 nM	–	–	–	–
O=S1(=O)CCC(NS(=O)(=O)c2ccc(-c3ccnc4[nH]ccc34)cc2)CC1	50.1 nM	79.4 nM	–	–	–	–
Cc1cc2c(-c3ccc(S(=O)(=O)NCCO)cc3)ccnc2[nH]1	316 nM	20 nM	501 nM	–	–	–
O=S(=O)(c1ccc(-c2ccnc3[nH]ccc23)cc1)N1CCCC1	1260 nM	251 nM	–	–	–	–
NC(=O)c1ccc(-c2ccnc3[nH]ccc23)cc1	398 nM	631 nM	–	–	–	–
Cc1cc2c(-c3ccc(S(=O)(=O)N(C)C4CCS(=O)(=O)CC4)cc3)ccnc2[nH]1	1000 nM	39.8 nM	501 nM	–	–	–
O=S(=O)(NC1CNC1)c1ccc(-c2ccnc3[nH]ccc23)cc1	31.6 nM	39.8 nM	–	–	–	–
Cc1cc2c(-c3ccc(S(=O)(=O)NCCN)cc3)ccnc2[nH]1	126 nM	20 nM	316 nM	316 nM	–	–
